From PubChem BioAssay (NCI)
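Tested at 5 concentrations; 48 h exposure; 96-well plates; endpoints linearly interpolated, else capped at highest concentration. Abbreviation: GI50, concentration required for 50% inhibition of growth. TGI denotes the concentration required for complete inhibition of growth.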

Key:
Assay in all cases: NCI anticancer screen, dose series, 48 h; in the data active means GI50 below about 0.43 µM; inactive means the rest
[1] = system: IGROV1 ovarian
[2] = system: OVCAR-4 ovarian
[3] = system: MCF7 breast
[4] = system: 786-0 renal
[5] = system: LOX IMVI melanoma
[6] = system: NCI-H226 lung
[7] = system: SW-620 colon
[8] = system: HT29 colon
[9] = system: MOLT-4 leukemia
[10] = system: SK-OV-3 ovarian
[11] = system: COLO 205 colon
[12] = system: A498 renal
[13] = system: UACC-62 melanoma
[14] = system: OVCAR-5 ovarian
[15] = system: SNB-19 CNS
[16] = system: U251 CNS
[17] = system: MDA-MB-231 breast
[18] = system: MDA-MB-435
[19] = system: KM12 colon
[20] = system: ACHN renal
[21] = system: RPMI-8226 leukemia
[22] = system: SK-MEL-5 melanoma
[23] = system: NCI-H522 lung
[24] = system: HOP-92 NSCLC
[25] = system: M14 melanoma
[26] = system: HCT-116 colon
[27] = system: NCI-H23 lung
[28] = system: SK-MEL-2 melanoma
[29] = system: SR leukemia
[30] = system: T-47D breast
[31] = system: SN12C renal
[32] = system: UO-31 renal
[33] = system: NCI-H460 lung
[34] = system: A549 NSCLC
[35] = system: BT-549 breast
[36] = system: SF-539 CNS
[37] = system: NCI/ADR-RES ovarian
[38] = system: SF-295 CNS
[39] = system: CAKI-1 renal
[40] = system: HCT-15 colon
[41] = system: UACC-257 melanoma
[42] = system: MALME-3M melanoma
[43] = system: SF-268 CNS
[44] = system: CCRF-CEM leukemia
[45] = system: OVCAR-8 ovarian
[46] = system: TK-10 renal
[47] = system: PC-3 prostate
[48] = system: HS 578T breast
[49] = system: DU-145 prostate
[50] = system: HOP-62 NSCLC
[51] = system: HCC-2998 colon
[52] = system: SNB-75 CNS
[53] = system: SK-MEL-28 melanoma
[54] = system: K-562 leukemia
[55] = system: OVCAR-3 ovarian
[56] = system: RXF 393 renal
[57] = system: EKVX NSCLC

O=C(Nc1cccc(-n2cc(-c3ccncc3)c(-c3ccc(O)c(Cl)c3)n2)c1)c1ccc(Cl)c(Cl)c1
89.9 µM: TGI [12]
46.2 µM: TGI [18]
38.6 µM: TGI [28]
54.6 µM: TGI [25]
94.3 µM: TGI [4]
inactive: GI50 [1] 25.5 µM | GI50 [2] 9.9 µM | GI50 [3] 4.08 µM | GI50 [4] 5.49 µM | GI50 [5] 7.21 µM | GI50 [6] 8.06 µM | GI50 [7] 3.89 µM | GI50 [8] 26 µM | GI50 [9] 7.19 µM | GI50 [10] 42.3 µM | GI50 [11] 62.2 µM | GI50 [12] 1.94 µM | GI50 [13] 10.8 µM | GI50 [14] 39.5 µM | GI50 [15] 29.7 µM | GI50 [16] 4.03 µM | GI50 [17] 1.52 µM | GI50 [18] 6.06 µM | GI50 [19] 5.44 µM | GI50 [20] 4.62 µM | GI50 [21] 3.46 µM | GI50 [22] 3.9 µM | GI50 [23] 4.13 µM | GI50 [24] 2.33 µM | GI50 [25] 5.26 µM | GI50 [26] 5.95 µM | GI50 [27] 15 µM | GI50 [28] 11.6 µM | GI50 [29] 3.57 µM | GI50 [30] 5.36 µM | GI50 [31] 23.1 µM | GI50 [32] 4.5 µM | GI50 [33] 3.91 µM | GI50 [34] 6.55 µM | GI50 [35] 10.4 µM | GI50 [36] 3.47 µM | GI50 [37] 5.26 µM | GI50 [38] 5.94 µM | GI50 [39] 3.38 µM | GI50 [40] 3.2 µM | GI50 [41] 4.12 µM | GI50 [42] 3.58 µM | GI50 [43] 36.9 µM | GI50 [44] 4.08 µM | GI50 [45] 5.06 µM | GI50 [46] 43.2 µM | GI50 [47] 5.16 µM | GI50 [48] 2.82 µM | GI50 [49] 20.9 µM | GI50 [50] 20.3 µM | GI50 [51] 40.6 µM | GI50 [52] 0.977 µM | GI50 [53] 3.45 µM | GI50 [54] 3.48 µM
18.7 µM: TGI [22]
31.3 µM: TGI [41]
86.5 µM: TGI [38]
18.4 µM: TGI [52]
65.5 µM: TGI [37]
34.2 µM: TGI [16]
19.4 µM: TGI [53]
21 µM: TGI [42]
74.4 µM: TGI [23]
47.6 µM: TGI [13]
28.4 µM: TGI [24]
> 100 µM: TGI [1] | TGI [2] | TGI [3] | TGI [5] | TGI [6] | TGI [7] | TGI [8] | TGI [9] | TGI [10] | TGI [11] | TGI [14] | TGI [15] | TGI [19] | TGI [20] | TGI [21] | TGI [26] | TGI [27] | TGI [29] | TGI [30] | TGI [31] | TGI [32] | TGI [33] | TGI [34] | TGI [35] | TGI [36] | TGI [39] | TGI [40] | TGI [43] | TGI [44] | TGI [45] | TGI [46] | TGI [47] | TGI [48] | TGI [49] | TGI [50] | TGI [51] | TGI [54]
8.58 µM: TGI [17]

COc1ccc(-c2nnc(Nc3nc(O)c(C4=c5cc(F)ccc5=NC4=O)s3)o2)cc1
inactive: GI50 [1] 14.3 µM | GI50 [2] 39.7 µM | GI50 [3] 34.5 µM | GI50 [4] 23.4 µM | GI50 [5] 40 µM | GI50 [6] 46.3 µM | GI50 [7] 47.6 µM | GI50 [8] 40.5 µM | GI50 [9] 30.4 µM | GI50 [10] > 100 µM | GI50 [11] 68.2 µM | GI50 [12] 41.7 µM | GI50 [13] 35.1 µM | GI50 [14] > 100 µM | GI50 [15] 48.2 µM | GI50 [16] 25.3 µM | GI50 [17] 19.8 µM | GI50 [18] 36.2 µM | GI50 [19] 43.1 µM | GI50 [20] 35.3 µM | GI50 [21] 59.1 µM | GI50 [22] 28.7 µM | GI50 [23] 33.9 µM | GI50 [24] 87 µM | GI50 [26] 20 µM | GI50 [27] 67.7 µM | GI50 [28] 33.7 µM | GI50 [55] 14.8 µM | GI50 [30] 93.2 µM | GI50 [31] 47 µM | GI50 [32] 37.9 µM | GI50 [33] 34.2 µM | GI50 [34] 64.6 µM | GI50 [35] 36.5 µM | GI50 [36] 80.9 µM | GI50 [37] 49.7 µM | GI50 [38] 29.5 µM | GI50 [39] 28.8 µM | GI50 [40] 44.7 µM | GI50 [41] > 100 µM | GI50 [42] 34.5 µM | GI50 [43] 67.7 µM | GI50 [44] 28.8 µM | GI50 [45] 54.4 µM | GI50 [46] 56.3 µM | GI50 [47] 32.4 µM | GI50 [56] 65.8 µM | GI50 [48] 69.1 µM | GI50 [57] 96.1 µM | GI50 [49] 46.9 µM | GI50 [50] 18.2 µM | GI50 [51] 84.3 µM | GI50 [53] > 100 µM | GI50 [54] 37.1 µM
61.2 µM: TGI [16]
42.7 µM: TGI [26]
56.3 µM: TGI [4]
52.2 µM: TGI [17]
42.3 µM: TGI [55]
51.4 µM: TGI [1]
43.7 µM: TGI [50]
> 100 µM: TGI [2] | TGI [3] | TGI [5] | TGI [6] | TGI [7] | TGI [8] | TGI [9] | TGI [10] | TGI [11] | TGI [12] | TGI [13] | TGI [14] | TGI [15] | TGI [18] | TGI [19] | TGI [20] | TGI [21] | TGI [22] | TGI [23] | TGI [24] | TGI [27] | TGI [28] | TGI [30] | TGI [31] | TGI [32] | TGI [33] | TGI [34] | TGI [35] | TGI [36] | TGI [37] | TGI [38] | TGI [40] | TGI [41] | TGI [42] | TGI [43] | TGI [44] | TGI [45] | TGI [46] | TGI [47] | TGI [56] | TGI [48] | TGI [57] | TGI [49] | TGI [51] | TGI [53] | TGI [54]
99.3 µM: TGI [39]
